Data reported in patent publication US20090317457A1, “ANTI-INFLAMMATORY AND WOUND HEALING EFFECTS OF LYMPHOID THYMOSIN B-4” (Yale University, priority 2002, published 2009).

Tests used:
[1] = test system: DNFB-induced allergic contact dermatitis of ear skin; assay: DNFB allergic contact dermatitis (ACD) ear swelling assay; assay type: in vivo, FVB mice; conditions: for DNFB Ear Thickness (+/− SE): Un-Methionated Thymosin Experiment; for ear thickness: unit not given
Protocol: Experimental groups of 8-10 female FVB mice, 8-10 weeks of age, were housed in temperature controlled rooms and given food and water ad libitum. Observations and measurements were made by an investigator blinded to the experimental group. Mice were sensitized on day 0 by epicutaneous application to razor-shaved abdominal skin of 25 μl of 0.5% DNFB in a mixture of acetone:olive oil (4:1). Before the challenge with DNFB, mice were injected (i) intraperitoneally with 100 μl of 3.50×10^−5 M thymosin peptide solution (30 minutes before DNFB) and (ii) intradermally with 40 μl of 8.75×10^−5 M peptide solution in both ears (1 min prior to DNFB challenge). On day 5, after measuring baseline ear thickness with an engineer's micrometer, mice were challenged by applying 10 μl of 0.2% DNFB in acetone:olive oil to each side of each ear. Ears were re-measured 6 h., 24 h., and 48 h. after challenge, and data expressed as the response above baseline (i.e., ear thickness 24 h. after challenge minus ear thickness immediately prior to challenge)±1 standard error of the mean (S.E.). For each mouse, increases in right and left ear thickness were averaged. The experiment was repeated twice. Statistics. Groups were compared for differences in the meaning using a one-tailed Student's t test; p<0.05 was considered statistically significant.

[2] = test system: human umbilical vein endothelial cells (HUVEC); conditions: references 8, 9; cited from earlier work
[3] = test system: λ-carrageenan induced neutrophil mediated inflammation of the footpad; conditions: oxidised form; reference 8; cited from earlier work
neutrophil chemotaxis = conditions: chemically-synthesized peptide; reference 8; cited from earlier work
[4] = test system: λ-carrageenan induced neutrophil mediated inflammation of the footpad; assay: λ-carrageenan-induced footpad inflammation (footpad swelling); assay type: in vivo, BALB/c mice; conditions: for Footpad Thickness (+/− SE): Un-Methionated Thymosin Experiment (A), oxidised peptide
Protocol: Experimental groups of 8-10 female BALB/c mice, 8-10 weeks of age, were housed in temperature controlled rooms and given food and water ad libitum. Observations and measurements were made by an investigator blinded to the experimental group. λ-Carrageenan injection. After measuring the baseline thickness of the hind footpads with a spring-loaded engineer's micrometer, mice were injected subcutaneously in both hind paws with 340 μg of λ-carrageenan in 40 μl. 6 h., 24 h., and 48 h. after the injection of λ-carrageenan, footpads were re-measured and swelling calculated by subtracting the baseline from the experimental measurements. For each mouse, increases in right and left footpad thickness were averaged. Thymosin peptides were injected as previously described [reference 8]: (i) intraperitoneally with 100 μl of 3.50×10^−5 M peptide solution, 30 minutes before footpad injection; (ii) intradermally into the footpad with 40 μl of 8.75×10^−5 M peptide solution and λ-carrageenan at time 0, and (iii) intraperitoneally with 100 μl of 3.50×10^−5 M peptide solution, 6 h. after footpad injection. For each group, the mean increase in footpad thickness was calculated, and compared to other groups using a one-tailed Student's t-test. The experiment was repeated four times. Statistics. Groups were compared for differences in the meaning using a one-tailed Student's t test; p<0.05 was considered statistically significant.

N-SDKPDMAEIEKFDKSKLKKTETQEKNPL-PSKETIEQEKQAGES-C (SEQ ID NO:1) [UTβ4]
suppression of ACD ear swelling response relative to PBS ([1]; 6 h): −4% | ear swelling response compared to mice receiving PBS or UTβ4 (FIG. 4A) ([1]; 6 h, 24 h and 72 h after challenge): no significant suppression | suppression of ACD ear swelling response relative to PBS ([1]; 24 h): 5% | suppression of ACD ear swelling response relative to PBS ([1]; 72 h): 2% | DNFB Ear Thickness (+/− SE) ([1]; forty-eight hours after challenge): 19.90 ± 1.02 .01 mm | DNFB Ear Thickness (+/− SE) ([1]; six hours after challenge): 9.85 ± 0.66 .01 mm | DNFB Ear Thickness (+/− SE) ([1]; twenty-four hours after challenge): 22.68 ± 1.33 .01 mm | ear thickness ([1]; seventy-two hours): 19.90±1.02 | ear thickness ([1]; six hours): 9.85±0.66 | ear thickness ([1]; twenty-four hours): 22.68±1.33 | closure of scratch wounds in endothelial cell and keratinocyte monolayers in vitro [2]: promote the closure | inhibition of λ-carrageenan-induced edema/inflammation in the mouse footpad [3]: active | neutrophil chemotaxis in vitro (neutrophil chemotaxis): inhibit neutrophil chemotaxis in vitro | suppression of footpad inflammation relative to PBS ([4]; 6 h): 12% | suppression of footpad inflammation relative to PBS ([4]; 24 h): 30% | footpad thickness ([4]; 24 h, unit not given): 0.37±0.03 | suppression of footpad inflammation relative to PBS ([4]; 48 h): 31% | Footpad Thickness (+/− SE) ([4]; forty-eight hours after λ-carrageenan): 0.41 ± 0.04 mm | Footpad Thickness (+/− SE) ([4]; six hours after λ-carrageenan, increase over baseline): 0.53 ± 0.03 mm | Footpad Thickness (+/− SE) ([4]; twenty-four hours after λ-carrageenan): 0.37 ± 0.03 mm
